The test system of the assay is CD2F1 mice, intracerebral P388 leukemia, median survival T/C%. Nature of the assay: NCI In Vivo Anticancer Drug Screen. Data for tumor model P388 Leukemia (intracerebral) in CD2F1 (CDF1) mice. Conditions: endpoint: median survival time, higher = longer survival. As to the method:
The antitumor activity of compounds was measured in mice bearing transplantable tumors. Survival or tumor size were measured and the results are expressed as the measurement made in the treated group (T) divided by the measurement made in the vehicle treated control group (C). The tumor model used in this assay is P388 Leukemia (intracerebral) in CD2F1 (CDF1) mice

“And” between values parts separate entries of the source, which are not always exact repeats. Identical values can stand only once. Toxic doses and inconclusive results are not listed.

For `CS(C)=O`, the T/C is, setting by setting: (dose: 1000.0 mg/kg/injection, schedule: Q01DX005 (ip), vehicle: saline) 104 % of control and 107 % of control; (dose: 2000.0 mg/kg/injection, schedule: Q01DX005 (ip), vehicle: saline) 100 % of control and 104 % of control; (dose: 4000.0 mg/kg/injection, schedule: Q01DX005 (ip), vehicle: saline) 100 % of control and 105 % of control; (dose: 8000.0 mg/kg/injection, schedule: Q01DX005 (ip), vehicle: saline) 105 % of control and 108 % of control.
On to `CC[C@]1(O)C[C@H]2CN(CCc3c([nH]c4ccccc34)[C@@](C(=O)OC)(c3cc4c(cc3OC)N(C=O)[C@H]3[C@@](O)(C(=O)OC)[C@H](OC(C)=O)[C@]5(CC)C=CCN6CC[C@]43[C@@H]65)C2)C1`, for which the T/C runs as follows: (dose: 0.2 mg/kg/injection, schedule: Q04DX003 (ip), vehicle: water) 111 % of control; (dose: 0.4 mg/kg/injection, schedule: Q04DX003 (ip), vehicle: water) 106 % of control; (dose: 0.8 mg/kg/injection, schedule: Q04DX003 (ip), vehicle: water) 116 % of control; (dose: 1.6 mg/kg/injection, schedule: Q04DX003 (ip), vehicle: water) 109 % of control; (dose: 3.2 mg/kg/injection, schedule: Q04DX003 (ip), vehicle: water) 106 % of control.
On to `CS(=O)(=O)CS(=O)(=O)OCCCl`, for which the T/C was 110 % of control (dose: 6.25 mg/kg/injection, schedule: Q01DX009 (ip), vehicle: saline); 114 % of control (dose: 12.5 mg/kg/injection, schedule: Q01DX009 (ip), vehicle: saline); 164 % of control (dose: 25.0 mg/kg/injection, schedule: Q01DX009 (ip), vehicle: saline); 203 % of control (dose: 50.0 mg/kg/injection, schedule: Q01DX009 (ip), vehicle: saline).
